Measurements: publication PMC8119466, “A screen of FDA-approved drugs identifies inhibitors of protein tyrosine phosphatase 4A3 (PTP4A3 or PRL-3)” (Scientific Reports, 2021)
Where a name gives a salt, the structure may show the parent alone. Read-outs that look alike come from different tables or passages of the source.

Experiments:
Type in all cases: biochemical
[1] = target: T1, recombinant PRL-1 (Homo sapiens, UniProt Q93096); experiment: In vitro phosphatase assay (DiFMUP hydrolysis), PRL-1; further: test concentration or dose not given here
T1 construct: 6xHis (N, cleaved yes); made in house; host or cells: E. coli One Shot BL21 Star
T1 sequence (Q93096 1-173): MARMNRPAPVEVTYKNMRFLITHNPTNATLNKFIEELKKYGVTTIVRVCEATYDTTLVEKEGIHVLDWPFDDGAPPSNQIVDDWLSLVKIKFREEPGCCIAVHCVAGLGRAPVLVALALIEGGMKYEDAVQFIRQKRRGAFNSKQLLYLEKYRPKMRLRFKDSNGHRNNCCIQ

[2] = target: T2, recombinant PRL-2 (Homo sapiens, UniProt Q12974); experiment: In vitro phosphatase assay (DiFMUP hydrolysis), PRL-2;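 further: PRL-2 activity read as DiFMUP hydrolysis after 20 min at room temperature with drug, enzyme first pre-reduced at 4 °C for 20 min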
T2 construct: 6xHis (N, cleaved yes); made in house; host or cells: E. coli One Shot BL21 Star
T2 sequence (Q12974 1-167): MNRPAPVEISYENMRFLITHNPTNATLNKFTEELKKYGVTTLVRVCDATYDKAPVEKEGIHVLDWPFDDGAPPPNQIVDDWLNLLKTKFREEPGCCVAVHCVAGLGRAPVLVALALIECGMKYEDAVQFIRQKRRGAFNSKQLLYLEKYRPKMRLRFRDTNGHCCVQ

[3] = target: T3, recombinant PRL-3 (Homo sapiens, UniProt O75365); experiment: In vitro phosphatase assay (DiFMUP hydrolysis), PRL-3; further: test concentration or dose not given here
T3 construct: 6xHis (N, cleaved yes); made in house; host or cells: E. coli One Shot BL21 Star
T3 sequence (O75365 whole entry): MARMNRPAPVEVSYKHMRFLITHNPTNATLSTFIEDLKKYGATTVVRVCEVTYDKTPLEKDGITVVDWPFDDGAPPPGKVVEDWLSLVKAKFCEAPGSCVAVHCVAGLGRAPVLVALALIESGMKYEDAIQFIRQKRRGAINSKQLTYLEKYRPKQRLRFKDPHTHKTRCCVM

[4] = FDA-approved drug screen, activity compared to DMSO
[5] = FDA-approved drug screen, compared to DMSO

| SMILES | % Phosphatase Activity (compared to DMSO) PRL-1 [1, 5] | % Phosphatase Activity (compared to DMSO) PRL-2 [2, 5] | % Phosphatase Activity (compared to DMSO) PRL-3 [3, 5] | other results |
| --- | --- | --- | --- | --- |
| CCOC(=O)c1ccc(C#Cc2ccc3c(c2)C(C)(C)CCS3)nc1 [Tazarotene] |  |  |  | % Phosphatase Activity (compared to DMSO) PRL-1 [1, 4]: 1414%; % Phosphatase Activity (compared to DMSO) PRL-2 [2, 4]: 1439%; % Phosphatase Activity (compared to DMSO) PRL-3 [3, 4]: 148% |
| CCCS(=O)(=O)Nc1ccc(F)c(C(=O)c2c[nH]c3ncc(-c4ccc(Cl)cc4)cc23)c1F [Vemurafenib (PLX4032, RG7204)] |  |  |  | % Phosphatase Activity (compared to DMSO) PRL-1 [1, 4]: 89%; % Phosphatase Activity (compared to DMSO) PRL-2 [2, 4]: 89%; % Phosphatase Activity (compared to DMSO) PRL-3 [3, 4]: 80% |
| CC1(C)CCC(CN2CCN(c3ccc(C(=O)NS(=O)(=O)c4ccc(NCC5CCOCC5)c([N+](=O)[O-])c4)c(Oc4cnc5[nH]ccc5c4)c3)CC2)=C(c2ccc(Cl)cc2)C1 [ABT-199 (GDC-0199)] | 68% | 30% | 78% |  |
| CCC(=O)O[C@]1(C(=O)CCl)[C@@H](C)C[C@H]2[C@@H]3CCC4=CC(=O)C=C[C@]4(C)[C@@]3(F)[C@@H](O)C[C@@]21C [Clobetasol propionate] | 92% | 88% | 78% |  |
| CC(=O)O[C@]1(C(C)=O)CC[C@H]2[C@@H]3C=C(Cl)C4=CC(=O)CC[C@]4(C)[C@H]3CC[C@@]21C [Chlormadinone acetate] | 85% | 76% | 81% |  |
| NC(=O)C(c1ccccc1)(c1ccccc1)[C@@H]1CCN(CCc2ccc3c(c2)CCO3)C1 [Darifenacin HBr] |  |  |  | % Phosphatase Activity (compared to DMSO) PRL-1 [1]: 100%; % Phosphatase Activity (compared to DMSO) PRL-2 [2]: 102%; % Phosphatase Activity (compared to DMSO) PRL-3 [3]: 87% |
| O=[N+]([O-])C(Br)(CO)CO [Bronopol] | 103% | 96% | 86% |  |
| CC(O)C(=O)O.CC(O)C(=O)O.CN1CCN(c2ccc3nc(-c4c(N)c5c(F)cccc5[nH]c4=O)[nH]c3c2)CC1 [Dovitinib (TKI-258) Dilactic Acid] | 92% | 80% | 91% |  |
| Cc1ccc(-c2cc(C(F)(F)F)nn2-c2ccc(S(N)(=O)=O)cc2)cc1 [Celecoxib] | 92% | 81% | 71% |  |
| CC(C)NCC(O)COc1ccc(CCOCC2CC2)cc1.Cl (stereo not drawn) [Betaxolol hydrochloride (Betoptic)] |  |  |  | % Phosphatase Activity (compared to DMSO) PRL-1 [1]: 84%; % Phosphatase Activity (compared to DMSO) PRL-2 [2]: 99%; % Phosphatase Activity (compared to DMSO) PRL-3 [3]: 97% |
| CC(CN(C)C)CN1c2ccccc2CCc2ccccc21 (stereo not drawn) [Trimipramine Maleate] |  |  |  | % Phosphatase Activity (compared to DMSO) PRL-1 [1, 4]: 94%; % Phosphatase Activity (compared to DMSO) PRL-2 [2, 4]: 97%; % Phosphatase Activity (compared to DMSO) PRL-3 [3, 4]: 90% |
| COc1ccccc1N1CCN(CC(O)COc2cccc3ccccc23)CC1 (stereo not drawn) [Naftopidil] | 109% | 111% | 94% |  |
| CNS(=O)(=O)CCc1ccc2[nH]cc(C3CCN(C)CC3)c2c1 [Naratriptan] | 103% | 86% | 90% |  |
| NC(=O)c1cc(N2CC2)c([N+](=O)[O-])cc1[N+](=O)[O-] [CB1954] | 100% | 74% | 105% |  |
| Cc1ccc(S(=O)(=O)NC(=O)NN2CC3CCCC3C2)cc1 (stereo not drawn) [Gliclazide] | 112% | 138% | 94% |  |
| CCc1cc2c(cc1CC)CC(NC[C@H](O)c1ccc(O)c3[nH]c(=O)ccc13)C2 [Indacaterol Maleate] | 95% | 100% | 95% |  |
| Cc1ccsc1C(=CCCN1CCC[C@@H](C(=O)O)C1)c1sccc1C [Tiagabine hydrochloride] |  |  |  | % Phosphatase Activity (compared to DMSO) PRL-1 [1, 4]: 100%; % Phosphatase Activity (compared to DMSO) PRL-2 [2, 4]: 97%; % Phosphatase Activity (compared to DMSO) PRL-3 [3, 4]: 83% |
| Nc1ccc(S(=O)(=O)Nc2ccccn2)cc1 [Sulfapyridine] |  |  |  | % Phosphatase Activity (compared to DMSO) PRL-1 [1, 4]: 106%; % Phosphatase Activity (compared to DMSO) PRL-2 [2, 4]: 113%; % Phosphatase Activity (compared to DMSO) PRL-3 [3, 4]: 84% |
| CCN1CC(CCN2CCOCC2)C(c2ccccc2)(c2ccccc2)C1=O.Cl (stereo not drawn) [Doxapram HCl] | 113% | 98% | 92% |  |

| SMILES | % Phosphatase Activity (compared to DMSO) PRL-1 [1, 5] | % Phosphatase Activity (compared to DMSO) PRL-2 [2, 5] | % Phosphatase Activity (compared to DMSO) PRL-3 [3, 5] | other results |
| --- | --- | --- | --- | --- |
| O=C(/C=C/C=C/c1ccc2c(c1)OCO2)N1CCCCC1 [Piperine] | 125% | 119% | 106% |  |
| CC(C(=O)O)c1ccc2c(c1)Cc1cccnc1O2 (stereo not drawn) [Pranoprofen] | 97% | 87% | 92% |  |
| O=N[O-].[Na+] [Sodium Nitrite] |  |  |  | % Phosphatase Activity (compared to DMSO) PRL-1 [1]: 94%; % Phosphatase Activity (compared to DMSO) PRL-2 [2]: 116%; % Phosphatase Activity (compared to DMSO) PRL-3 [3]: 75% |
| O=C(NC1CCN(CCCCC2(C(=O)NCC(F)(F)F)c3ccccc3-c3ccccc32)CC1)c1ccccc1-c1ccc(C(F)(F)F)cc1 [Lomitapide Mesylate] | 129% | 119% | 125% |  |
| CCN(CC)CCNC(=O)c1ccc(N)cc1 [Procainamide HCl] | 94% | 127% | 75% |  |
| CC(=O)O.CC(=O)O.CC[C@H](C)C[C@H](C)CCCCCCCCC(=O)N[C@H]1C[C@@H](O)[C@@H](NCCN)NC(=O)[C@@H]2[C@@H](O)CCN2C(=O)[C@H]([C@H](O)CCN)NC(=O)[C@H]([C@H](O)[C@@H](O)c2ccc(O)cc2)NC(=O)[C@@H]2C[C@@H](O)CN2C(=O)[C@H]([C@@H](C)O)NC1=O [Caspofungin Acetate] | 106% | 113% | 109% |  |
| Cc1cccc(C)c1NC(=O)CN1CCCC1=O [Nefiracetam] | 94% | 95% | 88% |  |
| CN1C[C@@H]2C[C@H]1CN2c1cc2c(cc1F)c(=O)c(C(=O)O)cn2C1CC1.CS(=O)(=O)O [Danofloxacin Mesylate] | 998% | 757% | 146% |  |
| Nc1ncn([C@H]2C[C@H](O)[C@@H](CO)O2)c(=O)n1 [Decitabine] | 114% | 93% | 81% |  |
| O=C(O[C@H]1CN2CCC1CC2)N1CCc2ccccc2[C@@H]1c1ccccc1 [Solifenacin succinate] |  |  |  | % Phosphatase Activity (compared to DMSO) PRL-1 [1, 4]: 88%; % Phosphatase Activity (compared to DMSO) PRL-2 [2, 4]: 99%; % Phosphatase Activity (compared to DMSO) PRL-3 [3, 4]: 114% |
| CC1(O)CCC(C(C)(C)O)CC1.O (stereo not drawn) [Terpin (hydrate)] |  |  |  | % Phosphatase Activity (compared to DMSO) PRL-1 [1, 4]: 88%; % Phosphatase Activity (compared to DMSO) PRL-2 [2, 4]: 92%; % Phosphatase Activity (compared to DMSO) PRL-3 [3, 4]: 80% |
| CC(C)(C)NCC(O)c1cc(O)cc(O)c1 (stereo not drawn) [Terbutaline Sulfate] |  |  |  | % Phosphatase Activity (compared to DMSO) PRL-1 [1, 4]: 95%; % Phosphatase Activity (compared to DMSO) PRL-2 [2, 4]: 97%; % Phosphatase Activity (compared to DMSO) PRL-3 [3, 4]: 101% |
| CCOC(=O)[C@H](CCc1ccccc1)N[C@@H](C)C(=O)N1C(=O)N(C)C[C@H]1C(=O)O [Imidapril HCl] | 105% | 95% | 76% |  |
| CC(C)OC(=O)[C@H](C)N[P@](=O)(OC[C@H]1O[C@@H](n2ccc(=O)[nH]c2=O)[C@](C)(F)[C@@H]1O)Oc1ccccc1 [Sofosbuvir (PSI-7977, GS-7977)] |  |  |  | % Phosphatase Activity (compared to DMSO) PRL-1 [1, 4]: 87%; % Phosphatase Activity (compared to DMSO) PRL-2 [2, 4]: 96%; % Phosphatase Activity (compared to DMSO) PRL-3 [3, 4]: 89% |
| COC(=O)N[C@H](C(=O)N[C@@H](Cc1ccccc1)[C@@H](O)CN(Cc1ccc(-c2ccccn2)cc1)NC(=O)[C@@H](NC(=O)OC)C(C)(C)C)C(C)(C)C.O=S(=O)(O)O [Atazanavir Sulfate] | 95% | 83% | 83% |  |
| Nc1ccn([C@@H]2O[C@H](CO)[C@@H](O)C2(F)F)c(=O)n1 [Gemcitabine HCl] | 93% | 78% | 94% |  |
| COc1ccc(C(=O)c2ccccc2)c(O)c1 [Oxybenzone] | 99% | 81% | 93% |  |
| C[C@H](CCC(=O)O)[C@H]1CC[C@H]2[C@@H]3CC[C@@H]4C[C@H](O)CC[C@]4(C)[C@H]3C[C@H](O)[C@]12C [Deoxycholic acid] | 89% | 73% | 96% |  |
